Paper PMC7011974, “Benzimidazole derivatives endowed with potent antileishmanial activity” (Journal of Enzyme Inhibition and Medicinal Chemistry, 2017)
Read-outs that look alike come from different tables or passages of the source.

What was measured:
L. tropica promastigotes = assay: Antileishmanial activity on L. tropica promastigotes (MTT); assay type: cell-based, Leishmania tropica; conditions: for IC50: 72 h, read-out: IC50 (µM) L. tropica
[1] = tested on: human microvascular endothelial cell line (HMEC-1); assay: Cytotoxicity on HMEC-1 cells (MTT); assay type: cell-based; conditions: for IC50: cytotoxicity, HMEC-1 cells, MTT; for SI L. infantum (IC50 HMEC-1/IC50 L. infantum) / SI L. tropica (IC50 HMEC-1/IC50 L. tropica): selectivity index
[2] = tested on: L. infantum promastigotes; assay: Antileishmanial activity on L. infantum promastigotes (MTT); assay type: cell-based, Leishmania infantum; conditions: for IC50: Leishmania infantum, 72 h, read-out: IC50 (µM) L. infantum
[3] = Leishmania tropica, promastigotes, MTT, starred values mean of two experiments
[4] = fold potency versus miltefosine
[5] = percent of amphotericin B potency, calculated for each experiment
[6] = promastigotes of L. tropica and/or L. infantum

Row | SMILES | melting point [°C] | IC50 (L. tropica promastigotes; [3]) [µM] | Ratio IC50 miltef./IC50 compd., L. tropica (L. tropica promastigotes; [4]) | IC50 amph. B ×100/IC50 compd., L. tropica (L. tropica promastigotes; [5]) | IC50 ([1]; Homo sapiens) [µM] | SI L. infantum (IC50 HMEC-1/IC50 L. infantum) [1] | SI L. tropica (IC50 HMEC-1/IC50 L. tropica) [1] | IC50 ([2]; promastigotes, MTT) [µM] | Ratio IC50 miltef./IC50 compd., L. infantum [2, 4] | IC50 amph. B ×100/IC50 compd., L. infantum [2, 5] | Antileishmanial activity in words (L. tropica promastigotes; [6]) | other results
1 | CCCCCCCCCCCCCCCc1n(C)c2cc(Cl)c(Cl)cc2[n+]1C.[I-] [Compound 11, 5,6-Dichloro-1,3-dimethyl-2-pentadecyl-1 H-benzimidazol-3-ium iodide] | 200 to 203 | 1.06 ± 0.54 | 40.8 | 9.1 | 1.68 ± 0.75 | 2.00 | 1.58 | 0.84 ± 0.13 | 37.2 | 14.1 |  | 
2 | CCCC(CCC)c1n(C)c2ccccc2[n+]1C.[I-] [Compound 20, 1,3-Dimethyl-2-(heptan-4-yl)-1 H-benzimidazol-3-ium iodide] | 192.2 to 192.9 | > 73 |  |  | > 73 |  |  |  |  |  | inactive | 
3 | CCCCCCCCCCCCCCCc1n(C)c2ccccc2[n+]1Cc1ccccc1.[Cl-] [Compound 14, 3-Benzyl-1-methyl-2-pentadecyl-1 H-benzimidazol-3-ium chloride] | 215.7 to 219.3 | 0.49 | 88.3 | 16.7 | 0.91 ± 0.19 | 1.42 | 1.86 | 0.64 ± 0.01 | 48.8 | 24.4 |  | 
4 | CCCCCCCCCCCc1n(C)c2ccccc2[n+]1C.[I-] [Compound 3, 1,3-Dimethyl-2-undecyl-1 H-benzimidazol-3-ium iodide] | 157.3 to 161.3 | 1.68 | 25.8 | 4.9 | 2.64 ± 0.49 | 9.43 | 1.57 | 0.28 ± 0.07 | 111.6 | 55.7 |  | 
5 | CCCC(CCC)c1nc2ccccc2n1C [Compound 19, 2-(Heptan-4-yl)-1-methyl-1 H-benzimidazole] |  | 30 ± 10.3 | 1.4 | 0.40 | > 74 |  | >2.43 |  |  |  |  | 
6 | CCCCCCCCCCCCCCCc1nc2ccccc2n1C[c-]1cccc1.[Fe+2].c1cc[cH-]c1 [Compound 16, 1-(Ferrocenylmethyl)-2-pentadecyl-1 H-benzimidazole] |  |  |  |  |  |  |  |  |  |  | inactive | IC50 (L. tropica promastigotes; promastigotes, MTT, starred values mean of two experiments): > 35 µM; IC50 [1]: > 35 µM
7 | CCCCCCCCCCCc1n(Cc2ccccc2)c2ccccc2[n+]1Cc1ccccc1.[Cl-] [Compound 5, 1,3-Dibenzyl-2-undecyl-1H-benzimidazol-3-ium chloride] | 223.3 to 225.3 | 0.78 | 55.5 | 10.5 | 1.38 ± 0.17 | 2.26 | 1.77 | 0.61 ± 0.05 | 51.3 | 25.6 |  | 
8 | Cn1c(Cc2ccc(Cl)cc2)[n+](C)c2ccccc21.[I-] [Compound 21, 2-(4-Chlorobenzyl)-1,3-dimethyl-1 H-benzimidazol-3-ium iodide] | 94 to 98 | > 50 |  |  |  |  |  | > 50 |  |  | inactive | 
9 | COc1ccc(Cc2nc3cc(C(C)=O)ccc3n2C[C@@H]2CCCN3CCCC[C@H]23)cc1 [Compound 31] |  |  |  |  |  |  |  |  |  |  |  | IC50 amph. B ×100/IC50 compd., L. tropica (L. tropica promastigotes): 0.74; Ratio IC50 miltef./IC50 compd., L. tropica (L. tropica promastigotes): 1.8; IC50 (L. tropica promastigotes; Leishmania tropica): 23.9 ± 7.78 µM; IC50 amph. B ×100/IC50 compd., L. infantum [2]: 0.73; Ratio IC50 miltef./IC50 compd., L. infantum [2]: 1.1; IC50 [2]: 28.5 ± 4.47 µM
10 | Cn1c(Cc2ccc(Cl)cc2)[n+](C)c2cc(C(F)(F)F)ccc21.[I-] [Compound 22, 2-(4-Chlorobenzyl)-1,3-dimethyl-5-trifluoromethyl-1 H-benzimidazol-3-ium iodide] | 60 | 33.9 ± 12.6 | 1.3 | 0.30 |  |  |  | 16.7 ± 7.07 | 1.9 | 0.70 |  | 
11 | CCN(CC)CCCn1c(Cc2ccc(OC)cc2)nc2cc(C(C)=O)ccc21 [Compound 25] |  |  |  |  |  |  |  |  |  |  |  | Antileishmanial activity in words (L. tropica promastigotes): inactive; IC50 (L. tropica promastigotes; Leishmania tropica): > 51 µM; IC50 [2]: > 51 µM
12 | C[n+]1c(-c2ccc(Cl)cc2)n(C[C@@H]2CCC[N+]3(C)CCCC[C@H]23)c2ccc(C(F)(F)F)cc21 (stereo partly drawn) [Compound 39, 2-(4-Chlorophenyl)-3-methyl-1-{[5-methylammonio-(1 S,9aR)-octahydroquinolizin-1-yl]-methyl}-5-trifluoromethyl-1 H-benzimidazol-3-ium diiodide] | 165 to 169 | > 27 |  |  |  |  |  | > 27 |  |  | inactive | 
